# Laboratory results from patent publication US20040249122A1, “Cationic, amphipathic beta-sheet peptides and uses thereof” (priority 2003, published 2004).
# Read-outs that look alike come from different tables or passages of the source. Where a SMILES comes first, the peptide text is derived from it. The star is where a group is joined. Octanoyl = CCCCCCCC(=O)*
# What was measured:
# Format in all cases: cell-based
# [1] = tested on: Pseudomonas aeruginosa (ATCC 27853)
# Procedure: (§1) Antimicrobial and Hemolytic Assays. Antimicrobial susceptibility testing against Staphylococcus aureus (ATCC 29213), Escherichia coli (ATCC 25922), and Pseudomonas aeruginosa (ATCC 27853) was performed using a modification of the National Committee for Clinical Laboratory Standards microdilution broth assay (22). Mueller-Hinton broth (BBL) was used for diluting the peptide stock solution and for diluting the bacterial inoculum. The inoculum was prepared from mid-logarithmic phase cultures. […] The final concentration of peptide solution ranged-from 0.25 to 256 μg/mL in two-fold dilutions. The final concentration of bacteria in the wells was 5×10^5 CFU/mL. Peptides were tested in duplicate. In addition to the test peptide, three standard peptides and a non-treated growth control were included to validate the assay. The microtiter plates were incubated overnight at 37° C. and the absorbance was measured at 600 nm. […] After incubation at 37° C. for 30 min, the suspension was centrifuged at 10,000×g for 10 min and the absorbance at 400 nm was measured.
# [2] = tested on: Staphylococcus aureus (ATCC 29213)
# Procedure: as §1
# [3] = tested on: Escherichia coli (ATCC 25922)
# Procedure: as §1
MIC Pseud. aerug ([1]; ATCC 27853),MIC Staph. aureus ([2]; ATCC 29213),MIC E. coli ([3]; ATCC 25922),SMILES,MIC Pseud. aerug ([1]; Table 103),MIC Staph. aureus ([2]; Table 103),MIC E. coli ([3]; Table 103)
128 µg/mL,>256 µg/mL,128 µg/mL,"CC[C@H](C)[C@H](NC(=O)[C@H](C)NC(=O)CNC(=O)[C@@H](NC(=O)[C@H](CCCCN)NC(=O)[C@H](CCCCN)NC(=O)[C@@H](NC(=O)[C@H](C)NC(=O)CNC(=O)[C@H](Cc1c[nH]c2ccccc12)NC(=O)[C@H](CCCCN)NC(=O)[C@H](CCCCN)NC(=O)[C@@H](NC(=O)[C@H](C)NC(=O)CNC(=O)[C@@H](NC(=O)[C@H](CCCCN)NC(=O)[C@@H](N)CCCCN)[C@@H](C)CC)[C@@H](C)CC)[C@@H](C)CC)[C@@H](C)CC)C(N)=O [1,2-Hex, K K I G A I K K W G A J K K I G A I-NH2] (H-KKIGAIKKWGAIKKIGAI-NH2; N-terminus assumed)",–,–,–
>256 µg/mL,>256 µg/mL,>256 µg/mL,"CC[C@H](C)[C@H](NC(=O)[C@H](C)NC(=O)CNC(=O)[C@@H](NC(=O)[C@H](CCCCN)NC(=O)[C@H](CCCCN)NC(=O)[C@@H](NC(=O)[C@H](C)NC(=O)CNC(=O)[C@H](Cc1c[nH]c2ccccc12)NC(=O)[C@H](CCCCN)NC(=O)[C@H](CCCCN)NC(=O)[C@@H](NC(=O)[C@H](C)NC(=O)CNC(=O)[C@@H](NC(=O)[C@@H](N)CCCCN)[C@@H](C)CC)[C@@H](C)CC)[C@@H](C)CC)[C@@H](C)CC)C(=O)N[C@@H](CCCCN)C(N)=O [1,6-Hex, K I G A I K K W G A I K K I G A I K-NH2] (H-KIGAIKKWGAIKKIGAIK-NH2; N-terminus assumed)",–,–,–

# Second part, the compound before the results:
SMILES,MIC Pseud. aerug ([1]; ATCC 27853),MIC Staph. aureus ([2]; ATCC 29213),MIC E. coli ([3]; ATCC 25922),MIC Pseud. aerug ([1]; Table 103),MIC Staph. aureus ([2]; Table 103),MIC E. coli ([3]; Table 103)
"CC[C@H](C)[C@H](NC(=O)[C@H](C)NC(=O)[C@H](CCCCN)NC(=O)CNC(=O)[C@@H](NC(=O)[C@H](CCCCN)NC(=O)[C@@H](NC(=O)[C@H](C)NC(=O)[C@H](CCCCN)NC(=O)CNC(=O)[C@H](Cc1c[nH]c2ccccc12)NC(=O)[C@H](CCCCN)NC(=O)[C@@H](NC(=O)[C@H](C)NC(=O)[C@H](CCCCN)NC(=O)CNC(=O)[C@@H](NC(=O)[C@@H](N)CCCCN)[C@@H](C)CC)[C@@H](C)CC)[C@@H](C)CC)[C@@H](C)CC)C(N)=O [1,4-Hex, K I G K A I K W G K A I K I G K A I-NH2] (H-KIGKAIKWGKAIKIGKAI-NH2; N-terminus assumed)",64 µg/mL,>256 µg/mL,32 µg/mL,–,–,–
"CCCCCCCC(=O)N[C@@H](CCCCN)C(=O)N[C@H](C(=O)NCC(=O)N[C@@H](C)C(=O)N[C@@H](CCCCN)C(=O)N[C@H](C(=O)N[C@@H](CCCCN)C(=O)N[C@@H](Cc1c[nH]c2ccccc12)C(=O)NCC(=O)N[C@@H](C)C(=O)N[C@@H](CCCCN)C(=O)N[C@H](C(=O)N[C@@H](CCCCN)C(=O)N[C@H](C(=O)NCC(=O)N[C@@H](C)C(=O)N[C@@H](CCCCN)C(=O)N[C@H](C(N)=O)[C@@H](C)CC)[C@@H](C)CC)[C@@H](C)CC)[C@@H](C)CC)[C@@H](C)CC [Oct-KIGAKI-18A, Oct- K I G A K I K W G A K I K I G A K I-NH2] (Octanoyl-KIGAKIKWGAKIKIGAKI-NH2)",–,–,–,8 µg/mL,4 µg/mL,8 µg/mL
"CCCCCCCC(=O)N[C@@H](CCCCN)C(=O)N[C@H](C(=O)NCC(=O)N[C@@H](C)C(=O)N[C@@H](CCCCN)C(=O)N[C@H](C(=O)N[C@@H](CCCCN)C(=O)N[C@H](C(=O)NCC(=O)N[C@@H](C)C(=O)N[C@@H](CCCCN)C(=O)N[C@H](C(=O)N[C@@H](CCCCN)C(=O)N[C@@H](Cc1c[nH]c2ccccc12)C(=O)NCC(=O)N[C@@H](C)C(=O)N[C@@H](CCCCN)C(=O)N[C@H](C(N)=O)[C@@H](C)CC)[C@@H](C)CC)[C@@H](C)CC)[C@@H](C)CC)[C@@H](C)CC [Oct-KIGAKI-18B, Oct- K I G A K I K I G A K I K W G A K I-NH2] (Octanoyl-KIGAKIKIGAKIKWGAKI-NH2)",–,–,–,8 µg/mL,8 µg/mL,8 µg/mL
